Molecules are shown by their SMILES.

Turning to `CC(=O)Nc1ccc(O)cc1`, the solubility (mole fraction) is 0.15 (in PEGDME 250, 293.15 K); 0.174 (in PEGDME 250, 298.15 K); 0.196 (in PEGDME 250, 303.15 K); 0.216 (in PEGDME 250, 308.15 K); 0.236 (in PEGDME 250, 313.15 K); 0.00151 (in water, 293.15 K). For the same molecule, the solubility (mole fraction) (in water, 298.15 K) amounted to 0.00201; the solubility (mole fraction) (in water, 303.15 K) worked out at 0.0022; the solubility (mole fraction) (in water, 308.15 K) came out at 0.00288; the solubility (mole fraction) (in water, 313.15 K) was 0.00334.

Take `O=C(O)c1ccccc1O`: the solubility (mole fraction) stood at 0.347 (in PEGDME 250, 293.15 K); 0.382 (in PEGDME 250, 298.15 K); 0.415 (in PEGDME 250, 303.15 K); 0.45 (in PEGDME 250, 308.15 K); 0.486 (in PEGDME 250, 313.15 K); 0.000205 (in water, 293.15 K). For the same molecule, the solubility (mole fraction) stood at 0.000251 (in water, 298.15 K); 0.000306 (in water, 303.15 K); 0.000372 (in water, 308.15 K); 0.00046 (in water, 313.15 K).

By solubility (mole fraction) is commonly meant solubility expressed as the solute's share of all molecules.

The record behind these values is BigSolDB 2.1.
